Structures can show the parent of a compound that is named as a salt.
Tested on: behaviors of compound-treated mice
Assay: Neuropharmacological Assay (SmartCube)
Format: in vivo
Conditions: Mus musculus, ip, 0.25 h, dose having 50% or more total activity in SmartCube, i.p., read-out: MED (minimal effective dose)
Outline: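 Behavioral signatures were captured automatically by video, and each drug class received a probability for the best of three i.p. doses given 15 min pre-test (vehicle: Pharmasolve/PEG/propylene glycol). Potency is given as MED, the lowest mpk dose (typically 0.3–30) reaching 50% or more total activity.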

Structure (SMILES)	minimal effective dose [mg/kg]
NC[C@H]1OCCc2c(-c3ccon3)cccc21 (single isomer, unassigned) [Compound 89, hydrochloride salt]	≤ 3
CNC[C@@H]1OCCc2c(-c3ccon3)cccc21 (single isomer, unassigned) [Compound 90, hydrochloride salt]	10 to 30
CNC[C@H]1OCCc2c(-c3ccon3)cccc21 (single isomer, unassigned) [Compound 91, hydrochloride salt]	≤ 3
NC[C@@H]1OCCc2c(-c3ccno3)cccc21 (single isomer, unassigned) [Compound 92, hydrochloride salt]	≤ 3
NC[C@H]1OCCc2c(-c3ccno3)cccc21 (single isomer, unassigned) [Compound 93, hydrochloride salt]	10 to 30
CNC[C@H]1OCCc2c(-c3cnco3)cccc21 (single isomer, unassigned) [Compound 97, hydrochloride salt]	≤ 3
NC[C@@H]1OCCc2c(-c3cnco3)cccc21 (single isomer, unassigned) [Compound 98, hydrochloride salt]	≤ 3
NC[C@H]1OCCc2c(-c3cnco3)cccc21 (single isomer, unassigned) [Compound 99, hydrochloride salt]	≤ 3
NC[C@@H]1OCCc2c(-c3ncc[nH]3)cccc21 (single isomer, unassigned) [Compound 108, hydrochloride salt]	10 to 30
NC[C@@H]1OCCc2c(-c3c[nH]cn3)cccc21 (single isomer, unassigned) [Compound 112, hydrochloride salt]	10 to 30
NC[C@H]1OCCc2c(-c3c[nH]cn3)cccc21 (single isomer, unassigned) [Compound 113, hydrochloride salt]	3 to 10
CNC[C@@H]1OCCc2c(-c3c[nH]cn3)cccc21 (single isomer, unassigned) [Compound 114, hydrochloride salt]	10 to 30
CNC[C@H]1OCCc2c(-c3c[nH]cn3)cccc21 (single isomer, unassigned) [Compound 115, hydrochloride salt]	10 to 30

Same assay, conditions: i.p. 15 min before behavioral test, most efficacious dose(s) of 3 doses

Structure (SMILES)	AD: ADHD (probability that activity matches class)	AG: analgesic (probability that activity matches class)	AX: anxiolytic (probability that activity matches class)	CE: cognitive enhancer (probability that activity matches class)	DP: anti-depressant (probability that activity matches class)	MS: mood stabilizer (probability that activity matches class)	PS: anti-psychotic (probability that activity matches class)	SD: sedative hypnotic (probability that activity matches class)	UN: uncharacterized CNS activity (probability that activity matches class)
NC[C@H]1OCCc2c(-c3ccon3)cccc21 (single isomer, unassigned) [Compound 89, hydrochloride salt]	++ (5% ≤ ++ <25%)	++ (5% ≤ ++ <25%)	+++ (25% ≤ +++ <50%)	+ (LOQ ≤ + <5%)	++++ (50% ≤ ++++)	+ (LOQ ≤ + <5%)	++ (5% ≤ ++ <25%)	+ (LOQ ≤ + <5%)	++ (5% ≤ ++ <25%)
CNC[C@@H]1OCCc2c(-c3ccon3)cccc21 (single isomer, unassigned) [Compound 90, hydrochloride salt]	+ (LOQ ≤ + <5%)	+ (LOQ ≤ + <5%)	++ (5% ≤ ++ <25%)	+ (LOQ ≤ + <5%)	+ (LOQ ≤ + <5%)	+ (LOQ ≤ + <5%)	+ (LOQ ≤ + <5%)	+ (LOQ ≤ + <5%)	+ (LOQ ≤ + <5%)
CNC[C@H]1OCCc2c(-c3ccon3)cccc21 (single isomer, unassigned) [Compound 91, hydrochloride salt]	++++ (50% ≤ ++++)	+ (LOQ ≤ + <5%)	++ (5% ≤ ++ <25%)	+ (LOQ ≤ + <5%)	++++ (50% ≤ ++++)	+ (LOQ ≤ + <5%)	+ (LOQ ≤ + <5%)	++ (5% ≤ ++ <25%)	+++ (25% ≤ +++ <50%)
NC[C@@H]1OCCc2c(-c3ccno3)cccc21 (single isomer, unassigned) [Compound 92, hydrochloride salt]	++ (5% ≤ ++ <25%)	+ (LOQ ≤ + <5%)	++ (5% ≤ ++ <25%)	+ (LOQ ≤ + <5%)	++ (5% ≤ ++ <25%)	+ (LOQ ≤ + <5%)	+ (LOQ ≤ + <5%)	++ (5% ≤ ++ <25%)	+++ (25% ≤ +++ <50%)
NC[C@H]1OCCc2c(-c3ccno3)cccc21 (single isomer, unassigned) [Compound 93, hydrochloride salt]	+ (LOQ ≤ + <5%)	+ (LOQ ≤ + <5%)	+ (LOQ ≤ + <5%)	+ (LOQ ≤ + <5%)	+ (LOQ ≤ + <5%)	+ (LOQ ≤ + <5%)	+ (LOQ ≤ + <5%)	+ (LOQ ≤ + <5%)	+ (LOQ ≤ + <5%)
CNC[C@H]1OCCc2c(-c3cnco3)cccc21 (single isomer, unassigned) [Compound 97, hydrochloride salt]	+ (LOQ ≤ + <5%)	++ (5% ≤ ++ <25%)	++ (5% ≤ ++ <25%)	+ (LOQ ≤ + <5%)	++ (5% ≤ ++ <25%)	+ (LOQ ≤ + <5%)	++ (5% ≤ ++ <25%)	++++ (50% ≤ ++++)	++ (5% ≤ ++ <25%)
NC[C@@H]1OCCc2c(-c3cnco3)cccc21 (single isomer, unassigned) [Compound 98, hydrochloride salt]	++ (5% ≤ ++ <25%)	+ (LOQ ≤ + <5%)	++ (5% ≤ ++ <25%)	+ (LOQ ≤ + <5%)	++++ (50% ≤ ++++)	+ (LOQ ≤ + <5%)	+ (LOQ ≤ + <5%)	+ (LOQ ≤ + <5%)	+ (LOQ ≤ + <5%)
NC[C@H]1OCCc2c(-c3cnco3)cccc21 (single isomer, unassigned) [Compound 99, hydrochloride salt]	+ (LOQ ≤ + <5%)	++ (5% ≤ ++ <25%)	++ (5% ≤ ++ <25%)	++ (5% ≤ ++ <25%)	+ (LOQ ≤ + <5%)	+ (LOQ ≤ + <5%)	+ (LOQ ≤ + <5%)	++ (5% ≤ ++ <25%)	+++ (25% ≤ +++ <50%)
NC[C@@H]1OCCc2c(-c3ncc[nH]3)cccc21 (single isomer, unassigned) [Compound 108, hydrochloride salt]	+ (LOQ ≤ + <5%)	++ (5% ≤ ++ <25%)	++ (5% ≤ ++ <25%)	+ (LOQ ≤ + <5%)	++ (5% ≤ ++ <25%)	+ (LOQ ≤ + <5%)	++ (5% ≤ ++ <25%)	++ (5% ≤ ++ <25%)	+++ (25% ≤ +++ <50%)
NC[C@@H]1OCCc2c(-c3c[nH]cn3)cccc21 (single isomer, unassigned) [Compound 112, hydrochloride salt]	+ (LOQ ≤ + <5%)	+ (LOQ ≤ + <5%)	++ (5% ≤ ++ <25%)	+ (LOQ ≤ + <5%)	++ (5% ≤ ++ <25%)	+ (LOQ ≤ + <5%)	+ (LOQ ≤ + <5%)	+ (LOQ ≤ + <5%)	+ (LOQ ≤ + <5%)
NC[C@H]1OCCc2c(-c3c[nH]cn3)cccc21 (single isomer, unassigned) [Compound 113, hydrochloride salt]	+ (LOQ ≤ + <5%)	++ (5% ≤ ++ <25%)	++ (5% ≤ ++ <25%)	+ (LOQ ≤ + <5%)	++ (5% ≤ ++ <25%)	+ (LOQ ≤ + <5%)	+++ (25% ≤ +++ <50%)	+ (LOQ ≤ + <5%)	+++ (25% ≤ +++ <50%)
CNC[C@@H]1OCCc2c(-c3c[nH]cn3)cccc21 (single isomer, unassigned) [Compound 114, hydrochloride salt]	+ (LOQ ≤ + <5%)	+ (LOQ ≤ + <5%)	++ (5% ≤ ++ <25%)	+ (LOQ ≤ + <5%)	+ (LOQ ≤ + <5%)	+ (LOQ ≤ + <5%)	+ (LOQ ≤ + <5%)	+ (LOQ ≤ + <5%)	+ (LOQ ≤ + <5%)
CNC[C@H]1OCCc2c(-c3c[nH]cn3)cccc21 (single isomer, unassigned) [Compound 115, hydrochloride salt]	+ (LOQ ≤ + <5%)	+ (LOQ ≤ + <5%)	++ (5% ≤ ++ <25%)	+ (LOQ ≤ + <5%)	+ (LOQ ≤ + <5%)	+ (LOQ ≤ + <5%)	+ (LOQ ≤ + <5%)	+ (LOQ ≤ + <5%)	+ (LOQ ≤ + <5%)

Source: US10780074B2, “Compounds and uses thereof” (Sunovion Pharmaceuticals Inc., priority 2017, dated 2020)
